Laboratory results reported in patent publication US20090298752A1, “APLIDINE TREATMENT OF CANCERS” (PHARMA MAR, S.A., priority 1999, published 2009).

Legend:
[1] = system: Hs746T gastric tumour cells; test: in vitro activity on gastric tumour cells; assay type: cell-based, human
Experimental: (§1) Different model systems were evaluated to provide the basis for further clinical work. Selective antitumour activities were seen against two histologically different solid tumours: human gastric and prostate carcinomas. Potent in vitro activity to primary gastric tumour specimens or Hs746T gastric tumour cells is evident with IC30 values of 146 and 450 pM, respectively. […] activities were evaluated in nude rodents using sc implanted tumour fragments or hollow fibres (HF) containing tumour cells.

[2] = system: PC-3 prostate tumour cells; test: in vitro activity on prostate tumour cells; assay type: cell-based, human
Experimental: as §1

Prostate PC-3 = test: sc xenograft, prostate tumour, mouse; assay type: in vivo; details: for Activity (% T/C.): xenograft, mouse
Experimental: as §1
Follow-up studies necessitated using rats for iv infusions. With this variation, a 24 hr iv infusion schedule produced similar activities against HF gastric (20%) and HF prostate (31%) tumour cells. Cytotoxicity was also found using a 5 day iv infusion schedule against HF prostate tumour cells (33%).

advanced solid tumours = test: Phase I, 24 h infusion weekly x3 q4wk: antitumour activity; assay type: in vivo, human
Experimental: In this study 16 patients were treated. patients characteristics: median age 55 years, median PS 1, male/female 11/5, tumour types being as follows: Head and neck 5, kidney 2, colon 3, rectum 2, sarcoma 1 and melanoma 3, all pre-treated with chemotherapy (median 2 lines).
Aplidine was administered as a 24 h infusion at the following dose levels (Dls): 133 (3 pts), 266 (3 pts), 532 (3 pts), 1000 (3 pts), 2000 (3 pts) and 3000 (1 pt) mcg/m^2/wk×3 every 28 days.
To date, 25 pts (median age 58 yrs, median ECOG 1) with advanced, previously treated solid tumours or lymphoma have been treated in this phase I study. Using a schedule of APL 24 h weekly×3 followed by 1 wk rest, the following dose levels have been tested: 133 (n-3 pts), 266 (3), 532 (3), 1000 (3), 2000 (3), 4500 (3) and 3750 μg/m^2/wk (3). With 60 cycles (180 infusions) administered, all pts are evaluable for toxicity. The Maximum Tolerated Dose was 4500 μg/m^2/wk×3 with grade (G) 3 muscular toxicity (biopsy proven type II muscular atrophy). G4 CPK and G3 transaminitis the dose-limiting toxicities in 2 or 4 pts. […] All pts have been sampled for PK analysis by LC/MS/MS. […] As expected, neuromuscular toxicity is dose-limiting. The possible recommended dose of 3750 μg/m^2/wk×3 is being assessed.
A phase I trial was performed using 24 hour infusion weekly×3 followed by 1 wk rest. 32 patients (median age 58 yrs, median ECOG 1) with advanced, previously treated solid tumours have been treated. They have received 64 courses (median/pt: 2 (1-6)) across 8 dose levels: 133 (3 pts), 266 (3 pts), 532 (3 pts), 1000 (3 pts), 2000 (3 pts), 3000 (3 pts), 4500 (4 pts) and 3750 mcg/m^2/wk (10 pts). 2 out of 3 evaluable patients had DLT at 4500 mcg/m^2/wk: grade (G) 4 reversible neuromuscular toxicity (biopsy prevent type II muscular atrophy) and G4 CK increase (1 pt), and transient G3 transaminitis (1 pt). Other toxicities included G 1-2 malaise (most patients treated at ≧3000 mcg/m^2/wk), muscle cramps, G 1-2 emesis (responsive to antiemetics) and injection site reaction (very common and concentration-dependent). All patients have been sampled for PK analysis by a LC/MS/MS method. Pharmacokinetics are linear and the profiles fit a 2 compartment open model. […] Maintained plasma levels >1 ng/ml (active in vitro) were obtained at doses ≧3000 mcg/m^2. […] Four additional patients had minor responses or stable disease for >4 months. […] The recommended dose for future trials, 3750 mcg/m^2/wk×3, administered through a central vein catheter, is feasible and associated with mild toxicity.

[3] = system: solid tumours and non-Hodgkin lymphoma; test: Phase I, 24 h infusion every 2 weeks: antitumour activity; assay type: in vivo, human
Experimental: Aplidine is given as a 24 hour infusion every 2 weeks. The starting dose was 200 μg/m^2/d and dose escalation proceed including so far 400, 800, 1600, and 3200 μg/m^2/d. A total of 18 patients (M/F: 7/11, median age 52, OMS 0/1:10/8) have been entered. […] Among evaluable patients, toxicity consisted of mild grade I-II nausea/vomiting, grade I-II asthenia, and cramping occurring during or immediately after the infusion. No neuromuscular toxicity were reported at the evaluated doses. One patient with an advanced lung cancer and documented tumour progression at the dose of 1600 μg/m^2 developed a haemolytic anaemia and thrombocytopenia that was considered unlikely related to the study drug. […] An open 2-compartment model fits appropriately most plasma concentration profiles. […] The accrual is ongoing to determine the dose limiting toxicity and the dose to be recommended in phase II studies.
Aplidine was given to patients with solid tumour/NHL as a 24 hr infusion/q2w to 35 patients (median: age=51/ECOG=1) with solid tumour (32 pts) or NHL (3 pts). 23/35 patients were previously exposed to ≧3 previous lines of chemotherapy. Nine dose levels (200-7000 μg/m^2/w/q2w) and 65 cycles (120 infusions) were given. […] Toxicity consisted of G2-3 asthenia and emesis in 9-2 patients and 12-1 pts, respectively. G3 nausea/vomiting (≧5000 μg/m^2) was efficiently treated then prevented with 4HT3-regimens. […] At the dose of 5000 μg/m^2/w/q2w, 2 patients experienced transient muscle cramps with reversible G3 CPK-MM elevations. Among 9 patients treated at 6000 μg/m^2/w, 3 patients experienced an increase of CPK-MM and aldolase after the 3rd injection of aplidine. CPK elevations were G1-2 and not symptomatic in 2 patients but a G3 CPK elevation with G3 muscular pain and loss of muscle strength (DLT) was reported in 1 pt. This was reversible with no sequel. […] Ultrastructural electron microscopy indicated no morphological mitochondria alteration but a lost of the thick myosin filaments. At 7000 μg/m^2/q2w, 4 patients have been entered. […] Mechanistic hypothesis and preventive strategies against muscle toxicity are under evaluation.

[4] = Phase I, 1 h weekly infusion x3 q4wk: toxicity and pharmacokinetics; assay type: in vivo, human

Substance: aplidine
- IC30 [1]: 0.45 nM
- IC50 [2]: 3.4 nM
- Optimal activities, xenografted prostate tumours (Prostate PC-3; ip administration, range over regimens): 25-38%
- Activity (% T/C.) (Prostate PC-3; q4dx3.ip, 1.05 mg/kg): 38% T/C
- Activity (% T/C.) (Prostate PC-3; q4dx3.ip, 2.10 mg/kg): 34% T/C
- Activity (% T/C.) (Prostate PC-3; qd9.ip, 0.62 mg/kg): 30% T/C
- Activity (% T/C.) (Prostate PC-3; qd9.ip, 1.25 mg/kg): 25% T/C
- clinical response, pre-treated advanced melanoma (advanced solid tumours; DL 532 mcg/m^2/w, 1 patient): clinical improvement
- response, Patient #034, thyroid medullary carcinoma (advanced solid tumours; decrease in CEA marker): Clinical improvement and SD at lung lymphangitis
- duration of minor responses or stable disease (advanced solid tumours; four additional patients): > 4 months
- response, Patient #008, non measurable metastatic melanoma (advanced solid tumours; highly pre-treated): clinical improvement and tumour shrinkage
- tumour shrinkage, Patient #032, renal carcinoma (advanced solid tumours; in vivo): 20%
- duration of clinical improvement, advanced melanoma resistant to DTIC/interferon (advanced solid tumours; one patient): > 30 weeks
- response, patient with non-Hodgkin lymphoma ([3]; Example 6): Clinical improvement
- Activity observed in NHL ([3]; Example 14): 1/3
- Activity observed in molecular thyroid ([3]; Example 14): 2/2
- Activity observed in neuroendocrine cancer ([3]; Example 14): 1 pt
- Activity observed in renal ([3]; Example 14): 1/5
- antitumour activity in NHL and renal carcinoma ([3]; Example 18): Antitumour activity has been also noted
- Alk. Phos. G3 (worst toxicity per patient) ([4]; 2700 mcg/m^2/wk x3, 8 patients, footnote DLT): (1)^(2)
- Transaminitis G3 (worst toxicity per patient) ([4]; 2700 mcg/m^2/wk x3, 8 patients, one with Hepatitis C, 2 reversible by day 8, 1 DLT): 4
- Myalgia G2 (worst toxicity per patient) ([4]; 3600 mcg/m^2/wk x3, 2 patients): 1
